The record followed here is US10674727B2, “Substituted oxadiazoles for combating phytopathogenic fungi” (priority 2015, dated 2020).

In the first assay the test system is Phakopsora pachyrhizi. Kind of assay: Protective control of soy bean rust on soy beans (glass house trial). Type of assay: in vivo. Particulars: 16 ppm active compound, sprayed 2 days before inoculation, soy bean seedlings; untreated plants 90%. As to the method:
The spray solutions were prepared in several steps: The stock solution were prepared: a mixture of acetone and/or dimethylsulfoxide and the wetting agent/emulsifier Wettol, which is based on ethoxylated alkylphenoles, in a relation (volume) solvent-emulsifier of 99 to 1 was added to 25 mg of the compound to give a total of 5 ml. Water was then added to total volume of 100 ml. This stock solution was diluted with the described solvent-emulsifier-water mixture to the given concentration.
II.2) Protective control of soy bean rust on soy beans caused by Phakopsora pachyrhizi Leaves of pot-grown soy bean seedlings were sprayed to run-off with an aqueous suspension, containing the concentration of active ingredient or their mixture as described below. The plants were allowed to air-dry. The trial plants were cultivated for 2 day in a greenhouse chamber at 23 to 27° C. and a relative humidity between 60 and 80%. Then the plants were inoculated with spores of Phakopsora pachyrhizi. To ensure the success the artificial inoculation, the plants were transferred to a humid chamber with a relative humidity of about 95% and 20 to 24° C. for 24 h. The trial plants were cultivated for fourteen days in a greenhouse chamber at 23 to 27° C. and a relative humidity between 60 and 80%. The extent of fungal attack on the leaves was visually assessed as % diseased leaf area.
As to `CCN(Cc1ccc(-c2noc(C(F)(F)F)n2)cc1)C(=O)C(C)(C)C` [Ex-27], the diseased leaf area turned out to be 0%.
The same measure, in the same setting: next, `CCN(Cc1ccc(-c2noc(C(F)(F)F)n2)cc1)C(=O)C(C)C` [Ex-24]: 0%; `CCCC(=O)N(CC)Cc1ccc(-c2noc(C(F)(F)F)n2)cc1` [Ex-25]: 0%; `CCC(=O)N(CC)Cc1ccc(-c2noc(C(F)(F)F)n2)cc1` [Ex-26]: 0%.

The same assay, now with this note: 32 ppm active compound, sprayed 2 days before inoculation, soy bean seedlings; untreated plants 90%.
`CC(=O)NCc1ccc(-c2noc(C(F)(F)F)n2)cc1` [Ex-15] had a diseased leaf area of 0%.
Still for that read-out and setting: next, `CCC(C)C(=O)N(CC)Cc1ccc(-c2noc(C(F)(F)F)n2)cc1` (stereo not shown) [Ex-28]: 0%; `CC(=O)NC(c1ccc(-c2noc(C(F)(F)F)n2)cc1)C(F)(F)F` (stereo not shown) [Ex-23]: 0%; `CC(C)N(Cc1ccc(-c2noc(C(F)(F)F)n2)cc1)C(=O)C(C)(C)C` [Ex-10]: 0%.
On the same count and under the same terms, next, `CC(c1ccc(-c2noc(C(F)(F)F)n2)cc1)N(C)C(=O)C(C)(C)C` (stereo not shown) [Ex-17]: 0%; `CC(C)C(=O)N(C)Cc1ccc(-c2noc(C(F)(F)F)n2)cc1` [Ex-13, N,2-dimethyl-N[[4-[5-(trifluoromethyl)-1,2,4-oxadiazol-3-yl]phenyl]methyl]propanamide]: 0%.
On the same count and under the same terms, next, `CN(Cc1ccc(-c2noc(C(F)(F)F)n2)cc1)C(=O)C(C)(C)C` [Ex-8]: 0%; `CC1CCN(Cc2ccc(-c3noc(C(F)(F)F)n3)cc2)C1=O` (stereo not shown) [Ex-32]: 0%.
As for `CCCC(=O)N(C)Cc1ccc(-c2noc(C(F)(F)F)n2)cc1` [Ex-12], the diseased leaf area was determined as 0%.
Take `CCC(=O)N(C)C(C)c1ccc(-c2noc(C(F)(F)F)n2)cc1` (stereo not shown) [Ex-18]: the diseased leaf area is reported as 0%.
`C=CCN(Cc1ccc(-c2noc(C(F)(F)F)n2)cc1)C(C)=O` [Ex-4]: the diseased leaf area was 0%.
Still for that read-out and setting: as for `CC(C)C(=O)N(C)C(C)c1ccc(-c2noc(C(F)(F)F)n2)cc1` (stereo not shown) [Ex-21], the figure is 0%.
As for `CCC(=O)N(Cc1ccc(-c2noc(C(F)(F)F)n2)cc1)C(C)C` [Ex-9], the diseased leaf area is 0%.
On the same count and under the same terms, as for `CC1(C)CCC(=O)N(Cc2ccc(-c3noc(C(F)(F)F)n3)cc2)C1` [Ex-33], the figure is 0%; as for `CC(=O)N(C)C(C)c1ccc(-c2noc(C(F)(F)F)n2)cc1` (stereo not shown) [Ex-16, N-methyl-N-[1-[4-[5-(trifluoromethyl)-1,2,4-oxadiazol-3-yl]phenyl]ethyl]acetamide], 0%; as for `CCC(=O)N(C)Cc1ccc(-c2noc(C(F)(F)F)n2)cc1` [Ex-7], 0%.
With `C=CCN(Cc1ccc(-c2noc(C(F)(F)F)n2)cc1)C(=O)C(C)(C)C` [Ex-6], the diseased leaf area is 0%.
`CCCC(=O)N(C)C(C)c1ccc(-c2noc(C(F)(F)F)n2)cc1` (stereo not shown) [Ex-19]: the diseased leaf area turned out to be 0%.
On to `O=C1CCCN1Cc1ccc(-c2noc(C(F)(F)F)n2)cc1` [Ex-30, 1-[[4-[5-(trifluoromethyl)-1,2,4-oxadiazol-3-yl]phenyl]methyl] pyrrolidin-2-one], for which the diseased leaf area is recorded as 0%.
On the same count and under the same terms, next, `CCC(C)C(=O)N(C)C(C)c1ccc(-c2noc(C(F)(F)F)n2)cc1` (stereo not shown) [Ex-22]: 0%.
The same measure, in the same setting: next, `CCC(C)C(=O)N(C)Cc1ccc(-c2noc(C(F)(F)F)n2)cc1` (stereo not shown) [Ex-14]: 0%; `CC(C)CC1CCN(Cc2ccc(-c3noc(C(F)(F)F)n3)cc2)C1=O` (stereo not shown) [Ex-29]: 0%.
Same read-out and setting: next, `CC1(C)CC(=O)N(Cc2ccc(-c3noc(C(F)(F)F)n3)cc2)C1` [Ex-31]: 0%; `C=CCN(Cc1ccc(-c2noc(C(F)(F)F)n2)cc1)C(=O)CC` [Ex-5]: 0%; `CCC(CC)C(=O)N(C)Cc1ccc(-c2noc(C(F)(F)F)n2)cc1` [Ex-11]: 0%.
`CNC(c1ccc(-c2noc(C(F)(F)F)n2)cc1)C(F)(F)F` (stereo not shown) [Ex-1] yielded a diseased leaf area of 0%.
In the case of `CCC(CC)C(=O)N(C)C(C)c1ccc(-c2noc(C(F)(F)F)n2)cc1` (stereo not shown) [Ex-20], the diseased leaf area is on record as 0%.
